{"source": "ChEMBL document CHEMBL4145695", "about": "“Histone Deacetylase 6-Selective Inhibitors and the Influence of Capping Groups on Hydroxamate-Zinc Denticity” (J Med Chem, 2018)", "key": {"[1]": {"molecular_target": "T1, Protein deacetylase HDAC6 (Homo sapiens, UniProt Q9UBN7)", "T1 sequence (Q9UBN7 whole entry)": "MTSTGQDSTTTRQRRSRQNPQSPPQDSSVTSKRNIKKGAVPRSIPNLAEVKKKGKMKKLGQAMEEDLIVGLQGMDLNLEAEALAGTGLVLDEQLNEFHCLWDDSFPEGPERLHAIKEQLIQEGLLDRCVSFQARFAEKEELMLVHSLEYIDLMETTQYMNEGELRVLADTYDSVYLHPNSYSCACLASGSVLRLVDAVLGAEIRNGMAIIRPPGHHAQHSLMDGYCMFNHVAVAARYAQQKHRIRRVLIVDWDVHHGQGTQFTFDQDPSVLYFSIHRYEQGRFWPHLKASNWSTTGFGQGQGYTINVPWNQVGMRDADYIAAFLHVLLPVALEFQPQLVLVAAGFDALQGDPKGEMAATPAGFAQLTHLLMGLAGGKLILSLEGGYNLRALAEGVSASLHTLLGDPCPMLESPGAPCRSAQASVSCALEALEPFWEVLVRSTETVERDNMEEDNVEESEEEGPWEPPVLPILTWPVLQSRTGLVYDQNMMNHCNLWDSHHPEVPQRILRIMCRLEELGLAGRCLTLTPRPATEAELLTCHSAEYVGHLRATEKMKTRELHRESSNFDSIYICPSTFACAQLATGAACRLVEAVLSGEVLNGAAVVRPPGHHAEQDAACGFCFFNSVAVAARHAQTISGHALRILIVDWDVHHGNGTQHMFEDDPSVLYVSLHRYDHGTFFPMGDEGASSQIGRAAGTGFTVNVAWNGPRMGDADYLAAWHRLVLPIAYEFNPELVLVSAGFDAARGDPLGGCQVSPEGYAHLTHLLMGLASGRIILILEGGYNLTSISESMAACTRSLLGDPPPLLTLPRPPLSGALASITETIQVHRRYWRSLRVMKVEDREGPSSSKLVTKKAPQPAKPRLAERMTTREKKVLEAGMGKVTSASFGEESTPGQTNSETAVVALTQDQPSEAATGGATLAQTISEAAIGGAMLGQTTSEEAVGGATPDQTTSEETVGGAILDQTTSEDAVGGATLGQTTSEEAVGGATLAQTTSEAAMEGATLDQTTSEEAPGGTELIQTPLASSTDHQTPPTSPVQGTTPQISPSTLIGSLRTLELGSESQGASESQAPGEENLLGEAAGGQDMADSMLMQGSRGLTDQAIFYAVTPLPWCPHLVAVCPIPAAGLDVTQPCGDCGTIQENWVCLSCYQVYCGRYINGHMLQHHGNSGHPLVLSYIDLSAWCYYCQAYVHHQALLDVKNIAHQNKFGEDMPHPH", "assay": "Inhibition of human recombinant HDAC6 incubated for 90 mins using fluorogenic substrate ZMAL (Z-Lys(Ac)-AMC) by fluorescence based assay"}, "Histone deacetylase 1": {"molecular_target": "Histone deacetylase 1 (Homo sapiens, UniProt Q13547)", "sequence (Q13547 whole entry)": "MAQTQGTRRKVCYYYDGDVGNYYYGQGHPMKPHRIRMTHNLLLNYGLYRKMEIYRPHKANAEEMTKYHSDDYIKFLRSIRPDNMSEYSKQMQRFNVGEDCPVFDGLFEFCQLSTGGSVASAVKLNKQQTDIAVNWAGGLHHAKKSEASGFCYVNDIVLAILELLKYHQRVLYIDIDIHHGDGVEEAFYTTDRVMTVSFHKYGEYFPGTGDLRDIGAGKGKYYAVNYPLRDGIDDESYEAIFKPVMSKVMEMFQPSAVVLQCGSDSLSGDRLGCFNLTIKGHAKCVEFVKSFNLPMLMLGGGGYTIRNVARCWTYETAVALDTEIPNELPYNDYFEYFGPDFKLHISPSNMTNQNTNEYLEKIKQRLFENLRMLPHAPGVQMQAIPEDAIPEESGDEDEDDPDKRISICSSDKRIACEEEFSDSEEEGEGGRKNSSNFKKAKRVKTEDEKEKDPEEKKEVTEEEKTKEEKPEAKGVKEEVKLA", "assay": "Inhibition of human recombinant HDAC1 incubated for 90 mins using fluorogenic substrate ZMAL (Z-Lys(Ac)-AMC) by fluorescence based assay"}, "Homo sapiens": {"species": "Homo sapiens", "assay": "Selectivity index, ratio of IC50 for inhibition of human recombinant HDAC1 to IC50 for inhibition of human recombinant HDAC6"}}, "data": [{"smiles": "Cc1cc(C)cc(C(=O)N(CC(=O)NC2CCCCC2)Cc2ccc(C(=O)NO)cc2)c1", "values": [{"measurement": "IC50", "setting": "[1]", "value": 0.011, "unit": "µM"}, {"measurement": "IC50", "setting": "Histone deacetylase 1", "value": 0.27, "unit": "µM"}, {"measurement": "Ratio IC50", "setting": "Homo sapiens", "value": 25}]}, {"smiles": "CN(Cc1ccc(C(=O)NO)cc1F)CC12CC3CC(CC(C3)C1)C2", "values": [{"measurement": "IC50", "setting": "Histone deacetylase 1", "value": "> 1000", "unit": "µM"}]}, {"smiles": "CN(C)c1ccc(C(=O)N(CC(=O)NCc2ccccc2)Cc2ccc(C(=O)NO)cc2)cc1", "values": [{"measurement": "IC50", "setting": "[1]", "value": 0.014, "unit": "µM"}, {"measurement": "IC50", "setting": "Histone deacetylase 1", "value": 0.008, "unit": "µM"}, {"measurement": "Ratio IC50", "setting": "Homo sapiens", "value": 0.6}]}]}
